According to patent US20250269049A1, “CD20-TARGETED ANTIBODY COUPLING PHARMACEUTICAL PREPARATION” (priority 2017, published 2025):
Several values for one entry are separate records, joined by “and”; a condition that tells them apart may be missing. Identical values can stand only once.

Key:
Ramos cells [1] = test: In vitro cytotoxicity assay (CCK-8); format: cell-based; settings: about 72 hours incubation, parallel detections 1 and 2
Description: Experiment 2: In vitro Cytotoxicity Assay
FBS, purchased from Lonsera, product number S711-001S;
Streptomycin/Penicillin Dual Antibody, purchased from HyClone, Lot: SV30010;
DPBS (Dulbecco's Phosphate Buffer Solution) was purchased from Gibco, product number 14190-136;
CCK-8 reagent, purchased from Biolite, product number 35004.
Ramos cells were purchased from COBIOER BIOSCIENCES CO., LTD.
Cell culture and plating: Ramos cells with viability greater than 80% in the logarithmic growth phase up to 30 generations were selected for the experiment. Ramos cells were removed from culture flasks and added to 50 mL centrifuge tubes and blown to mix. 1000 rpm (≈188g) centrifugation was performed for 5-6 minutes. The supernatant was discarded and the cells were resuspended with the appropriate volume of diluent. […]
Plate reading: Load the plate into the enzyme labeling instrument and read the plate with 450 nm as the reading wavelength and 650 nm as the reference wavelength.
Data processing: The IC50 value was calculated using a four-parameter fitting model with the concentration value as the horizontal coordinate and the difference between the absorbance value at 450 nm minus the absorbance value at 650 nm as the vertical coordinate.

Ramos cells [2] = test: Internalization efficacy by flow cytometry, Ramos cells; format: cell-based; settings: 10 μg/mL, 37° C. 2 h, FIG. 2C
Procedure: (§1) Experiment 1: Method for Internalization Efficacy of Antibody-Drug Conjugate (TRS005) by Flow Cytometry
(§2) Cell preparation: take logarithmic growth phase Raji cells or Ramos cells, centrifuge at 1000 rpm for 5 minutes, resuspend using DPBS, adjust the density of live cells to 2×10^6 cells/mL, and divide into 1.5 mL centrifuge tubes, 1 mL/tube.
(§3) Sample dilution: The sample to be tested (TRS005 with a DAR of approximately 4.2) was diluted to 1000 μg/mL, 10 μL was added to each 1 mL of cell suspension, and blown and mixed to make the final concentration of the sample 10 μg/mL.
(§4) Incubation the cell suspension to which the samples were added was placed on ice and ice-bath for 30 minutes. […]
(§5) Cells from the negative control group treated with ice bath were gating and the average fluorescence intensity of cells in each tube at FL1 was recorded. […]
(§6) The percentage of endocytosis of the samples was calculated based on the average fluorescence intensity according to the following formula.
(§7) Internalization efficacy ratio %=(mean fluorescence intensity of negative control group−mean fluorescence intensity of experimental group)/mean fluorescence intensity of negative control group×100%.

Raji cells = test: Internalization efficacy by flow cytometry, Raji cells; format: cell-based; settings: 10 μg/mL, 37° C. 2 h, FIG. 2D
Procedure: as §1, §2, §3, §4, §5, §6, §7

[3] = test system: Daudi cell xenografts tumor; test: In vivo anti-tumor activity test, Daudi graft tumor; set-up: species or system BALB/c nude mice; settings: tail vein, 6 injections over 21 days, two batches (first and second), listed as TRS005
Description: Experiment 3 In vivo Anti-Tumor Activity Test
1. Test animals and housing environment
Species: BALB/c nude mice
Gender of animals: male mice.
Age at acquisition: 6-8 weeks; Body weight at the beginning of the experiment: 18˜20 g.
Housing environment: SPF grade.
Daudi cells were purchased from the cell bank of the Type Culture Collection of the Chinese Academy of Sciences.
3. TEST SAMPLE: The Test Sample was Selected From Two Batches of the Product Prepared in Example 2.
Under aseptic conditions of 5% CO2 and 37° C., Daudi cells were cultured with PRMI1640 medium containing 10% fetal bovine serum, respectively, and expanded to 5.0×10^8 cells. Cells were collected by centrifugation and mixed 1:1 with Matrix gel and inoculated subcutaneously into the right side of the rib cage of BALB/c nude mice at 1×10^7 cells/200 μl/animal.
When the mean tumor volume reached 100 mm3, the group was randomized: […]
There were 10 nude mice in each group. Then the administration of the drug was started by tail vein administration, and the body weight of BALB/c nude mice and the long and short diameters of the tumors were measured, and recorded during the administration. […]
Tumor volume and Tumor weight were expressed as Mean±Standard Error of the Mean (Mean±SEM). Statistical tests were analyzed by one-way analysis of variance (ANOVA), with p<0.05 considered significant and p<0.01 considered highly significant.

Example 2: Anti-CD20 antibody TRS001 (rituximab biosimilar) conjugated to MMAE via maleimidocaproyl-valine-citrulline-p-aminobenzyloxycarbonyl linker; preferred DAR distribution
IC50 (Ramos cells [1]): 0.0589 µg/mL and 0.0648 µg/mL
internalization efficacy (Ramos cells [2]): good internalization efficacy
internalization efficacy (Raji cells): good internalization efficacy
tumor inhibition rate ([3]; 0.75 mg/kg): 91.08% and 92.09%
tumor inhibition rate ([3]; 1.5 mg/kg): 97.15% and 97.71%
